Tests used:
[1] = tested on: NCI-H358 cells; assay: Antitumor test (1): NCI-H358 cells subcutaneously transplanted into nude mice; details: for notable findings such as weight reduction: NCI-H358 xenograft nude mice, HER3-ADC (1) 3 mg/kg iv and/or RASG12C inhibitor 10 mg/kg orally, 3 weeks
Protocol: Mouse: Female BALB/c nude mice of 5 to 6 week-old (Charles River Laboratories Japan, Inc.) were used in an experiment.
Measurement and calculation formula: In all studies, the long diameter and the short diameter of a tumor were measured with an electronic digital caliper (CD-15CX, Mitutoyo Corporation) twice a week to calculate the tumor volume (mm^3). The calculation formula was as follows: […]
HER3-ADC (1) was diluted with ABS buffer (10 mM acetate buffer (pH 5.5), 5% sorbitol), and the resultant liquid was administered in an amount of 10 mL/kg to the tail vein.
Sotorasib was dissolved in 2% hydroxypropyl methylcellulose and 1% Tween 80, and the resultant liquid was orally administered in an amount of 10 mL/kg. […] NCI-H358 cells, that is, human lung cancer line purchased from ATCC (American Type Culture Collection) were suspended in 50% Matrigel matrix (Invitrogen), and 3×10^6 cells thus obtained were subcutaneously transplanted into a right side portion of the body of each of the female nude mice, and the resultant mice were randomly grouped 13 days after the transplantation (Day 0). HER3-ADC (1) was administered to the tail vein at a dose of 3 mg/kg on Day 0, Day 7, and Day 14. The RASG12C inhibitors were administered at a dose of 10 mg/kg for 3 weeks once a day and five times a week. Groups each given one of these agents, a group given both, and a solvent administration group as a control group were established.

[2] = target: T1, topoisomerase I (Homo sapiens, UniProt P11387); details: reference: Ogitani Y. et al., Clinical Cancer Research 2016; cited from earlier work
T1 sequence (P11387 1-765): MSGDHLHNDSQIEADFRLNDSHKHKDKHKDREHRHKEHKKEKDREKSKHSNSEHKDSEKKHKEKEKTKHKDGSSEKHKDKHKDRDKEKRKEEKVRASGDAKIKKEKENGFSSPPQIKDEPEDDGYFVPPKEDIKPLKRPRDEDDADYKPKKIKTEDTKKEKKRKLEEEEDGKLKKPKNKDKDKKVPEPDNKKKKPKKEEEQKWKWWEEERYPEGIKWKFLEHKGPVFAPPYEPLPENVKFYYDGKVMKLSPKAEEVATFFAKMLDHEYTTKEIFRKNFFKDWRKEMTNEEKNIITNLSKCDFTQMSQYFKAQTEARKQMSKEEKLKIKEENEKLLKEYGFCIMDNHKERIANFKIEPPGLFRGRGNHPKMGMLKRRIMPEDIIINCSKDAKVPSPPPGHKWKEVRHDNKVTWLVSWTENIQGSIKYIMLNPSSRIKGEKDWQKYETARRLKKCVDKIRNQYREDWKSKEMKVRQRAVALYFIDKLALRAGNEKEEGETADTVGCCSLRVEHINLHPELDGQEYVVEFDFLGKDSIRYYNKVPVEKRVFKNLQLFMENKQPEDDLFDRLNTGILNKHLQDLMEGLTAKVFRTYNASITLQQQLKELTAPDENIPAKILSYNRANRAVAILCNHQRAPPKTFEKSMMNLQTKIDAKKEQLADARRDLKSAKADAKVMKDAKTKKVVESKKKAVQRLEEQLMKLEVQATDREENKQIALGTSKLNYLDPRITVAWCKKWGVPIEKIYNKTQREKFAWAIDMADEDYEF

Compound	notable findings such as weight reduction [1]	tumor growth inhibition (TGI), single administration of HER3-ADC (1) ([1]; NCI-H358 xenograft, female nude mice, 3 mg/kg tail vein on Day 0, Day 7 and Day 14, final day of the test)	tumor growth inhibition (TGI), single administration of RASG12C inhibitor ([1]; NCI-H358 xenograft, female nude mice, 10 mg/kg orally once a day, five times a week for 3 weeks, final day of the test)	topoisomerase I inhibitory effect [2]
HER3-ADC (1): anti-HER3 antibody (heavy chain SEQ ID NO: 1, light chain SEQ ID NO: 2) conjugated to exatecan-derivative drug-linker via thioether bond; average drug-to-antibody ratio 7.6	No notable findings such as weight reduction	68%		
C=CC(=O)N1CCN(c2nc(=O)n(-c3c(C)ccnc3C(C)C)c3nc(-c4c(O)cccc4F)c(F)cc23)[C@@H](C)C1 [sotorasib]	anal prolapse		39%	
CC[C@@]1(O)C(=O)OCc2c1cc1n(c2=O)Cc2c-1nc1cc(F)c(C)c3c1c2[C@@H](NC(=O)CO)CC3				confirmed to have topoisomerase I inhibitory effect

From patent publication US20260158157A1, “COMBINATION OF ANTI-HER3 ANTIBODY-DRUG CONJUGATE AND RASG12C INHIBITOR” (DAIICHI SANKYO COMPANY, LIMITED, priority 2023, published 2026)
